The values below come from ChEMBL document CHEMBL4610123, “Structure-Based Drug Discovery of N-((R)-3-(7-Methyl-1H-indazol-5-yl)-1-oxo-1-(((S)-1-oxo-3-(piperidin-4-yl)-1-(4-(pyridin-4-yl)piperazin-1-yl)propan-2-yl)amino)propan-2-yl)-2'-oxo-1',2'-dihydrospiro[piperidine-4,4'-pyrido[2,3-d][1,3]oxazine]-1-carboxamide (HTL22562): A Calcitonin Gene-Related …” (J Med Chem, 2020).

As usually defined, the clearance is the rate of elimination divided by the concentration. A high value points to a high capacity for elimination. One may read the pKb as the negative decadic logarithm of the Kb, by convention in mol/L. For orientation: Ki means a dissociation constant, usually derived from enzyme kinetics or from competition with a known ligand.

A short description of series [1]: Clearance in rat at 2 mg/kg, iv using 10% DMAC[…] Solutol HS15/80% saline formulation. Type of series: ADME, organism-based. The note with it: in vivo.
Series [2] has as its target T1, Calcitonin-gene-related peptide receptor, CALCRL/RAMP1 (Homo sapiens, UniProt O60894+Q16602). The experiment in a line: Antagonist activity at human CGRP receptor in human SK-N-MC cells assessed as inhibition of CGRP-induced cAMP production preincubated for 30 mins followed by CGRP addition and measured after 30 mins by HTRF assay. Type of series: functional, cell-based. On the technique in general: Changes in cAMP serve as a functional read-out for many G protein-coupled receptors.

For series [3], the target named is T1, Calcitonin-gene-related peptide receptor, CALCRL/RAMP1. The experiment in a line: Displacement of [3H]telcagepant from recombinant human CLR/RAMP1 expressed in Sf21 insect cell membranes measured after 60 mins by microbeta scintillation counting method. Background: Displacement assays read how much labelled ligand stays bound in the presence of the test substance.

Series [4] can be described thus: Clearance in rat at 2 mg/kg, iv using 100% acidified saline formulation. Type of series: ADME, organism-based. The note with it: in vivo.
Series [5] in a line: Thermodynamic solubility of the compound at pH 6. Format: physicochemical. The note with it: buffer, read-out: Therm_solubility.
Series [6] is described as follows: Thermodynamic solubility of the compound at pH 7.4. Format: physicochemical. The conditions noted are these: buffer, read-out: Therm_solubility.
Series [7] in a line: Clearance in rat at 0.5 mg/kg, iv. Format: ADME, organism-based. The note with it: in vivo.

Values after ≈ are worked out from the molar mass of the structure shown.

T1 sequence (O60894 whole entry): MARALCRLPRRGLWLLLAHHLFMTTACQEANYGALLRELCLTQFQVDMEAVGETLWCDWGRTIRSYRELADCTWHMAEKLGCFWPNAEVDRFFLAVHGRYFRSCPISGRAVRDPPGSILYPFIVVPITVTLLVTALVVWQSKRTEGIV
T1 sequence (Q16602 whole entry): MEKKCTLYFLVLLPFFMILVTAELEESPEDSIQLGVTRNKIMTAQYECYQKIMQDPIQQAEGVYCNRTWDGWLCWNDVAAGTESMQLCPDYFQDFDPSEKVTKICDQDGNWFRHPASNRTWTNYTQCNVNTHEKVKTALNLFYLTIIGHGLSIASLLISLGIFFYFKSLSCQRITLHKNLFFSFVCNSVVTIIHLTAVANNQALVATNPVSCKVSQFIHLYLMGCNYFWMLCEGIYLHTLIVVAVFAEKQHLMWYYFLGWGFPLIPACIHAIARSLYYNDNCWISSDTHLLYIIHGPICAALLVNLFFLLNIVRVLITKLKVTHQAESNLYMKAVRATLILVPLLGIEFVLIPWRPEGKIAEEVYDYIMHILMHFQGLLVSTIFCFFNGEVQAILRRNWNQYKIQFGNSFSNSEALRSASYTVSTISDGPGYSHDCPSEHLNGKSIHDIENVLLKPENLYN

Compound `O=C(N[C@@H](CC1CCNCC1)C(=O)N1CCN(c2ccncc2)CC1)[C@@H](Cc1cc(Br)c(O)c(Br)c1)NC(=O)N1CCC(n2c(=O)[nH]c3ncccc32)CC1` returned a clearance in series [1] of 28 mL/min/kg. Further, the negative-log Kb (pKb) in series [2] was 10.8.
As to `Cc1cc(C[C@@H](NC(=O)N2CCC(n3c(=O)[nH]c4ncccc43)CC2)C(=O)N[C@@H](Cc2ccncc2)C(=O)N2CCN(c3ccncc3)CC2)cc2cn[nH]c12`, the inhibition constant (Ki) in series [3] was 0.1 nM. Besides, in series [2], the pKb was 10. The compound also returned a clearance in series [4] of 87 mL/min/kg. Also, the values for the solubility thermodynamic in series [5] and in series [6] were 1770 µM (≈ 1340 µg/mL) and 230 µM (≈ 174 µg/mL), respectively.
With `Cc1cc(C[C@@H](NC(=O)N2CCC(n3c(=O)[nH]c4ncccc43)CC2)C(=O)N[C@@H](CC2CCNCC2)C(=O)N2CCN(c3ccncc3)CC2)cc2cn[nH]c12`, in series [7], the clearance is 55 mL/min/kg.
On to `Cc1cc(C[C@@H](NC(=O)N2CCC(n3c(=O)[nH]c4ncccc43)CC2)C(=O)N[C@@H](CCCCN)C(=O)N2CCN(c3ccncc3)CC2)cc2cn[nH]c12`, for which the Ki in series [3] was 0.0251 nM. Further, in series [2], the pKb was 11.
`Cc1cc(C[C@@H](NC(=O)N2CCC(N3Cc4ccccc4NC3=O)CC2)C(=O)N[C@@H](CC2CCNCC2)C(=O)N2CCN(c3ccncc3)CC2)cc2cn[nH]c12` yielded a clearance in series [1] of 6 mL/min/kg. For the same compound, the pKb in series [2] was 10.1.
The compound `Cc1cc(C[C@@H](NC(=O)N2CCC(c3cc4ccccc4[nH]c3=O)CC2)C(=O)N[C@@H](CC2CCNCC2)C(=O)N2CCN(c3ccncc3)CC2)cc2cn[nH]c12` had a clearance in series [1] of 31 mL/min/kg. In series [2], the negative logarithm of the Kb (pKb) was 9.8. The solubility thermodynamic in series [5] is 10 µM (≈ 7.73 µg/mL).
On to `O=C(N[C@@H](CC1CCNCC1)C(=O)N1CCN(c2ccncc2)CC1)[C@@H](Cc1cc(Br)c(O)c(Br)c1)NC(=O)N1CCC(N2Cc3ccccc3NC2=O)CC1`, for which the clearance in series [1] was 21 mL/min/kg. For the same compound, the pKb in series [2] is 11.2.
Taken in the same sequence, the figures for `NCCCC[C@H](NC(=O)[C@@H](Cc1cc(Br)c(O)c(Br)c1)NC(=O)N1CCC(N2Cc3ccccc3NC2=O)CC1)C(=O)N1CCN(c2ccncc2)CC1` [OLCEGEPANT] were 38 mL/min/kg and 11.2.
